Test results from PubChem BioAssay AID2103 (Johns Hopkins Ion Channel Center, 2009).
Calls of active or inactive are those of the source.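 How the source made its calls: active means hERG current rise at or above blocker-only control mean plus 3 SD, readout 0 or more; inactive means the rest.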

Target: Voltage-gated inwardly rectifying potassium channel KCNH2 (Homo sapiens) (UniProt Q12809)
Assay: hERG tail current rescue from dofetilide, cell-based, Ionworks automated patch clamp, CHO-hERG, secondary (AID 2103)
Details: dofetilide IC70, at 10 µM, hits give high values

Chain of Voltage-gated inwardly rectifying potassium channel KCNH2 (Homo sapiens) (Q12809 whole entry, looked up): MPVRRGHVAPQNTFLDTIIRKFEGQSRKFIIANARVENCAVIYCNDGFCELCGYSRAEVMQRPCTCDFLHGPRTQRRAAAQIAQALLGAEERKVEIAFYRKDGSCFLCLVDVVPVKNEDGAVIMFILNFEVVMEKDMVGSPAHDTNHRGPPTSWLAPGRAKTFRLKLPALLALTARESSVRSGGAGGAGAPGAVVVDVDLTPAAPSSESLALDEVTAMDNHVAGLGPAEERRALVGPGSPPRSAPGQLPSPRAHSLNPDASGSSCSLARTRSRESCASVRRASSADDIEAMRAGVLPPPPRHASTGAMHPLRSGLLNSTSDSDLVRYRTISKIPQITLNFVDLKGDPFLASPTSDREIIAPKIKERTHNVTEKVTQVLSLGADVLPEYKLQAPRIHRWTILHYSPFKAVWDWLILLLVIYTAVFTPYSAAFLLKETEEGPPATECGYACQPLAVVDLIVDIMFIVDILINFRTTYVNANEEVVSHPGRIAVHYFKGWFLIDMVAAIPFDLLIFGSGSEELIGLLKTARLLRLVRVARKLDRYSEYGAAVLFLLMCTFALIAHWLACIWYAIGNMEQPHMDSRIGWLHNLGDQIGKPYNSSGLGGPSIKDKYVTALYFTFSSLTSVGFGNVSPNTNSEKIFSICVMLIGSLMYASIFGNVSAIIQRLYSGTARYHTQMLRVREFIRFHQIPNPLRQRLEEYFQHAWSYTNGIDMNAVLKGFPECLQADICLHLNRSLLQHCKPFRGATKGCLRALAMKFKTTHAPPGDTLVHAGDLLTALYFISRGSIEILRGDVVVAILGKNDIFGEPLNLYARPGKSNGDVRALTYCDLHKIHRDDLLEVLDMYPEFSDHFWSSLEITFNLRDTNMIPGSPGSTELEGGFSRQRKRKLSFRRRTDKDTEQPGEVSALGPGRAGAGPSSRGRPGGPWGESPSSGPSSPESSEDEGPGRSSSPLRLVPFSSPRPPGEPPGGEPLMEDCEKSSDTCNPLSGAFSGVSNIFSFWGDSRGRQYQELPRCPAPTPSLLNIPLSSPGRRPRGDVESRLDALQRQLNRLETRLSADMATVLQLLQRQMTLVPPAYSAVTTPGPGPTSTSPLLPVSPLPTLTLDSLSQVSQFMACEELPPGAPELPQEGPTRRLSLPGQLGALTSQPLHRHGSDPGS

In the case of `Cc1ccc(C(C#N)c2ccc3c(C(F)(F)F)cc(C(F)(F)F)nc3n2)cc1` (centres undefined), the current change vs dofetilide control, less the hit threshold is reported as -59.8% (inactive).
For `CCOC(=O)c1c(C)[nH]c(C)c1S(=O)(=O)N1CCCCC1`, the current change vs dofetilide control, less the hit threshold was -31.9% (inactive).
For `Cc1ccc(Cn2nnc3c(=O)n(CC(=O)N4CCCc5ccccc54)cnc32)cc1`, the current change vs dofetilide control, less the hit threshold was -41.2% (inactive).
For `CCOC(=O)N1CCN(C(=O)c2ccc(Cl)c(S(=O)(=O)Nc3ccccc3)c2)CC1`, the current change vs dofetilide control, less the hit threshold was -58.5% (inactive).
For `CC(=O)c1c(C)c2c(n1CCN(C)C)CCCC2`, the current change vs dofetilide control, less the hit threshold was -56.2% (inactive).
With `CCOC(=O)C1CCN(S(=O)(=O)c2cccc3nonc23)CC1` the current change vs dofetilide control, less the hit threshold was -37.7% (inactive).
In the case of `Cc1nonc1CN(C)C(=O)c1ccc(OC2CCN(Cc3ccccn3)CC2)cc1`, the current change vs dofetilide control, less the hit threshold is reported as -69.9% (inactive).
In the case of `COC(=O)c1ccc(CSc2ncnc3sc(C)c(C)c23)o1`, the current change vs dofetilide control, less the hit threshold is reported as -48.9% (inactive).
With `CCCN(C(=O)c1ccco1)c1nnc(-c2ccncc2)s1` the current change vs dofetilide control, less the hit threshold was -29.1% (inactive).
`O=C1C2CC=CCC2C(=O)N1c1ccc(Cc2ccncc2)cc1` (centres undefined) was tested, and the current change vs dofetilide control, less the hit threshold was -31.9% (inactive).
For `Cc1nc2ccccc2n1-c1ccccc1`, the current change vs dofetilide control, less the hit threshold was -51.1% (inactive).
In the case of `Cc1ccc(C)c2sc(NC(=O)c3nc4ccccc4s3)nc12`, the current change vs dofetilide control, less the hit threshold is reported as -46.9% (inactive).
`Clc1cccc(OCCCN2CCCC2)c1Cl` was tested, and the current change vs dofetilide control, less the hit threshold was -77.4% (inactive).
In the case of `CC1CN(S(=O)(=O)c2ccc(-c3nc4ccccc4s3)cc2)CC(C)O1` (centres undefined), the current change vs dofetilide control, less the hit threshold is reported as -45% (inactive).
In the case of `Fc1ccc2nc(Nc3nc4c(F)cc(F)cc4s3)sc2c1`, the current change vs dofetilide control, less the hit threshold is reported as -49% (inactive).
In the case of `N#Cc1c(NC(=O)c2cc(-n3cnnc3)ccc2Cl)sc2c1CCCC2`, the current change vs dofetilide control, less the hit threshold is reported as -43.1% (inactive).
For `CCc1ccc(C(C)NC(=O)C2CCCC2)cc1` (centres undefined), the current change vs dofetilide control, less the hit threshold was -41.5% (inactive).
`CCOC(=O)Cc1nc2ccccc2o1` was tested, and the current change vs dofetilide control, less the hit threshold was -49.3% (inactive).
In the case of `CC(C)Oc1c(Cl)cc(CNC(C)(C)CO)cc1Cl`, the current change vs dofetilide control, less the hit threshold is reported as -52.1% (inactive).
`CN(C(=O)c1ccc(Cl)c(S(=O)(=O)N2CCOCC2)c1)c1ccccc1C(=O)O` was tested, and the current change vs dofetilide control, less the hit threshold was -64.9% (inactive).
For `CCOC(=O)N1CCN(C(=O)c2ccc(CN(c3ccc(C)c(C)c3)S(C)(=O)=O)cc2)CC1`, the current change vs dofetilide control, less the hit threshold was -30.1% (inactive).
In the case of `O=C(O)c1ccc(Cl)cc1Nc1nc2cc(Cl)ccc2o1`, the current change vs dofetilide control, less the hit threshold is reported as -48.7% (inactive).
With `CCc1ccc2nc(NC(=O)c3cc(C)on3)sc2c1` the current change vs dofetilide control, less the hit threshold was -43.6% (inactive).
In the case of `COc1ccc(C(=O)Nc2ccccc2C(=O)O)cc1Cl`, the current change vs dofetilide control, less the hit threshold is reported as -54.3% (inactive).
With `O=C(c1csc(Nc2ccccc2Cl)n1)N1CCCC1` the current change vs dofetilide control, less the hit threshold was -45.9% (inactive).
For `COC(=O)c1c(NS(=O)(=O)c2ccc3ccccc3c2)sc2c1CCCC2`, the current change vs dofetilide control, less the hit threshold was -46.2% (inactive).
`Cc1ccc(C(=O)Nc2nc3ccccc3c(=O)s2)cc1` was tested, and the current change vs dofetilide control, less the hit threshold was -52.6% (inactive).
`NC(=O)C1CCN(C(=O)c2cc3c(s2)CCCC3)CC1` was tested, and the current change vs dofetilide control, less the hit threshold was -52.8% (inactive).
With `CN(Cc1ccccc1)C(=O)CCc1ccccc1` the current change vs dofetilide control, less the hit threshold was -53.5% (inactive).
